Reference: patent publication US7524927B2, “Compositions, method and kits relating to deletion mutations of immunodeficiency virus gp120 hypervariable regions” (priority 2003, dated 2009)
Like-named read-outs stand apart in the source and are kept apart here.

How the values were obtained:
[1] = system: V3(6,6); V1/V2 Env pseudotypes; details: U87/CD4/CXCR4 target cells; two Env clones
Description: (§1) FIG. 9B is a diagram depicting AMD3100 sensitivity for viral pseudotypes containing the indicated Envs as indicated, i.e., VCP, V3(6,6); V1/V2, and V3(6,6). Sensitivity to AMD3100 was assessed using U87/CD4/CXCR4 target cells. Two different Env clones comprising deletion of V3(6,6) in combination with deletion of V1/V2 are depicted.

V3(6,6) Env pseudotype = details: U87/CD4/CXCR4 target cells
Description: as §1

VCP Env pseudotype = details: U87/CD4/CXCR4 target cells
Description: as §1

[2] = system: HIV-2/VCP virus (wildtype VCP); assay: microbe, parasite or virus in culture
Description: (§2) Each virus was innoculated onto SupT1 cells in the presence of varying concentrations of AMD3100 (0, 10, 100, 1,000, and 10,000 nm as indicated).
(§3) This bicyclam specifically blocks CXCR4 function and its ability to serve as a receptor for X4 Envs by binding to two Asp residues at the base of the CXCR4 second and […] extracellular loops.

ΔV3(6,6) virus = details: SupT1 cells
Description: as §2, §3

CXCR4 = molecular target: T1, CXCR4 (Homo sapiens, UniProt P61073); format: binding
T1 construct: expressed in transfected cells
Description: Western blot binding assay. […] In this assay, the gp120 of interest is added to cells expressing the desired coreceptor either in the absence or presence of sCD4. After binding for 30 min, the cells are washed, lysed, and bound gp120 detected by western blot.

ΔV1/V2; ΔV3(6,6) virus = details: SupT1 cells
Description: as §3

T1 sequence (P61073 whole entry): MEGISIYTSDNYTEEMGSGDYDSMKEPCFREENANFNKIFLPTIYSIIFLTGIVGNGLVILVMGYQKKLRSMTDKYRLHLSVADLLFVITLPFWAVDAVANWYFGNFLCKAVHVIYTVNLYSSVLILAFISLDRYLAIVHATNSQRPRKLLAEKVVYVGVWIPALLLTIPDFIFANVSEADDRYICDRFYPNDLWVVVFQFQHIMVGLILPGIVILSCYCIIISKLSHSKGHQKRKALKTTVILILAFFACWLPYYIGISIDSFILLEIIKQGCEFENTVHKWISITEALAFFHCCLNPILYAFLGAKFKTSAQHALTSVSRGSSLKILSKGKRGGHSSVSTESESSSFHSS

| Molecule | AMD3100 sensitivity of pseudotype [1] | AMD3100 sensitivity of pseudotype (V3(6,6) Env pseudotype) | AMD3100 sensitivity of pseudotype (VCP Env pseudotype) | Sensitivity of virus to AMD3100 ([2]; 0, 10, 100, 1,000, and 10,000 nm AMD3100, SupT1 cells) | IC50 ([2]; Human immunodeficiency virus 2, SUP-T1, read-out: IC50 for inhibition of infection of SupT1 cells) [nM] | Resistance of virus to AMD3100 (ΔV3(6,6) virus; adapted (p16) virus, up to 10,000 nm AMD3100) | AMD3100 concentration at which virus could not be blocked (ΔV3(6,6) virus; ΔV3(6,6) virus) | Inhibition of VCP gp120 binding to CXCR4-expressing cells (CXCR4) | AMD3100 concentration at which virus could not be blocked (ΔV1/V2; ΔV3(6,6) virus) | Inhibition of VCP gp120 binding to CXCR4-expressing cells (CXCR4; VCP gp120) |
| --- | --- | --- | --- | --- | --- | --- | --- | --- | --- | --- |
| c1cc(CN2CCCNCCNCCCNCC2)ccc1CN1CCCNCCNCCCNCC1 [AMD3100] | complete resistance | complete resistance | sensitivity | sensitive | ~50 | completely resistant | greater than 10,000 nM | inhibitable | greater than 10,000 nM | – |
| SDF-1: natural chemokine ligand of CXCR4 [reference compound] | – | – | – | – | – | – | – | – | – | inhibitable |
